Source: patent US20260132140A1, “IMIDAZOLYL-AMINO-PYRAZINE-CARBONITRILS AS CHK-1 INHIBITORS” (BenevolentAI Bio Limited, priority 2022, published 2026)

Assays:
[1] = target: human Chk2 kinase (Homo sapiens, UniProt O96017); assay: biochemical
[2] = target: T1, human Chk1 kinase (Homo sapiens, UniProt O14757); assay: biochemical
T1 sequence (O14757 1-476): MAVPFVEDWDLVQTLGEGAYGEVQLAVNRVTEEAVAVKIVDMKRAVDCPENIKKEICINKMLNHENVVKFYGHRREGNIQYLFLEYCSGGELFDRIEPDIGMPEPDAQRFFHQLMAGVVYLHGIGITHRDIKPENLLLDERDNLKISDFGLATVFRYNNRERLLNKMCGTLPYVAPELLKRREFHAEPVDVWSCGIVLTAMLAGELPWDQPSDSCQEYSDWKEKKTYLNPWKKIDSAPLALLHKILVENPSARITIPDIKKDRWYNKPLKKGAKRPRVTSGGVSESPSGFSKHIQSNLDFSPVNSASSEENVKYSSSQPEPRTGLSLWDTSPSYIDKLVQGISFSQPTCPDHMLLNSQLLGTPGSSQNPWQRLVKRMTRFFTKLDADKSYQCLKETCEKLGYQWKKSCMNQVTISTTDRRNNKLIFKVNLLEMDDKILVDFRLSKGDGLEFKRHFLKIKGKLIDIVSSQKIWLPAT

Sequence of human Chk2 kinase (O96017 whole entry): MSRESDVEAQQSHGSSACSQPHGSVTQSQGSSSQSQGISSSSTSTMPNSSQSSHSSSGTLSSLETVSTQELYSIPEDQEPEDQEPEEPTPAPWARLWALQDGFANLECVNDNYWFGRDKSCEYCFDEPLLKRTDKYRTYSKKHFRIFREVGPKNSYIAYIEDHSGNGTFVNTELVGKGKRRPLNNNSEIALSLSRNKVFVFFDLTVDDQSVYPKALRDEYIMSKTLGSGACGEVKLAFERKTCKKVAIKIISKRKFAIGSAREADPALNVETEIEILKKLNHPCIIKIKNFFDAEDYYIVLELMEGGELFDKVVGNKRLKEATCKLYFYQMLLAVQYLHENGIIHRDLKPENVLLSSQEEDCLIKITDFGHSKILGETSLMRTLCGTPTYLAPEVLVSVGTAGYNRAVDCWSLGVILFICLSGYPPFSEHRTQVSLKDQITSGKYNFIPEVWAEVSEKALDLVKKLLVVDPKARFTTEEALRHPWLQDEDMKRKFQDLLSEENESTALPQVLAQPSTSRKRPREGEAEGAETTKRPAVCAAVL

| SMILES | IC50 [1] | IC50 [2] |
| --- | --- | --- |
| N#Cc1cnc(Nc2cn(-c3ccc(CN4CC[C@@H](F)C4)cc3F)cn2)cn1 [Example 6, (R)-5-((1-(2-Fluoro-4-((3-fluoropyrrolidin-1-yl)methyl)phenyl)-1H-imidazol-4-yl)amino)pyrazine-2-carbonitrile] | > 100000 nM | 100 to 316 nM |
| COc1cc(CN2CCOCC2)ccc1-n1cnc(Nc2cnc(C#N)cn2)c1 [Example 173, 5-((1-(2-Methoxy-4-(morpholinomethyl)phenyl)-1H-imidazol-4-yl)amino)pyrazine-2-carbonitrile] | 10000 to 100000 nM | 31.6 to 100 nM |
| CN1CCCC12CN(c1cccc(-n3cnc(Nc4cnc(C#N)cn4)c3)c1)C2 [Example 34, 5-((1-(3-(5-Methyl-2,5-diazaspiro[3.4]octan-2-yl)phenyl)-1H-imidazol-4-yl)amino)pyrazine-2-carbonitrile] | 10000 to 100000 nM | 10 to 31.6 nM |
| CN[C@H]1CN(c2ccc(-n3cnc(Nc4cnc(C#N)cn4)c3)c(OC)c2)C[C@H]1F [Example 164, 5-((1-(4-((3R,4S)-3-Fluoro-4-(methylamino)pyrrolidin-1-yl)-2-methoxyphenyl)-1H-imidazol-4-yl)amino)pyrazine-2-carbonitrile] | 1000 to 10000 nM | < 10 nM |
| C[C@@H]1CN(C)CCN1c1ccc(-n2cnc(Nc3cnc(C#N)cn3)c2)cc1 [Example 16, (R)-5-((1-(4-(2,4-Dimethylpiperazin-1-yl)phenyl)-1H-imidazol-4-yl)amino)pyrazine-2-carbonitrile] | 10000 to 100000 nM | 10 to 31.6 nM |
| CC(C)C1CN(C2CCN(c3ccc(-n4cnc(Nc5cnc(C#N)cn5)c4)cc3)C2)C1 (single isomer, unassigned) [Example 133, 5-((1-(4-(3-(3-Isopropylazetidin-1-yl)pyrrolidin-1-yl)phenyl)-1H-imidazol-4-yl)amino)pyrazine-2-carbonitrile] | 10000 to 100000 nM | < 10 nM |
| COc1cc(CN2CCC(F)(F)CC2)ccc1-n1cnc(Nc2cnc(C#N)cn2)c1 [Example 172, 5-((1-(4-((4,4-Difluoropiperidin-1-yl)methyl)-2-methoxyphenyl)-1H-imidazol-4-yl)amino)pyrazine-2-carbonitrile] | 10000 to 100000 nM | 31.6 to 100 nM |
| COc1cc(CN2CC[C@@H](F)C2)cc(F)c1-n1cnc(Nc2cnc(C#N)cn2)c1 [Example 5, (R)-5-((1-(2-Fluoro-4-((3-fluoropyrrolidin-1-yl)methyl)-6-methoxyphenyl)-1H-imidazol-4-yl)amino)pyrazine-2-carbonitrile] | > 100000 nM | 316 to 1000 nM |
| CCN(CC)C1(c2ccc(-n3cnc(Nc4cnc(C#N)cn4)c3)cc2)CC1 [Example 179, 5-((1-(4-(1-(Diethylamino)cyclopropyl)phenyl)-1H-imidazol-4-yl)amino)pyrazine-2-carbonitrile] | > 100000 nM | 100 to 316 nM |
| N#Cc1cnc(Nc2cn(-c3ccc(N4CCN(C5CC(F)(F)C5)CC4)cc3)cn2)cn1 [Example 181, 5-((1-(4-(4-(3,3-Difluorocyclobutyl)piperazin-1-yl)phenyl)-1H-imidazol-4-yl)amino)pyrazine-2-carbonitrile] | > 100000 nM | 31.6 to 100 nM |
| N#Cc1cnc(Nc2cn(-c3cccc(N4C[C@@H](N)[C@@H](F)C4)c3)cn2)cn1 [Example 151, 5-((1-(3-((3R,4S)-3-Amino-4-fluoropyrrolidin-1-yl)phenyl)-1H-imidazol-4-yl)amino)pyrazine-2-carbonitrile] | 10000 to 100000 nM | 31.6 to 100 nM |
| COc1cc(N2CCN(C)C[C@@H]2C)ccc1-n1cnc(Nc2cnc(C#N)cn2)c1 [Example 31, (S)-5-((1-(4-(2,4-Dimethylpiperazin-1-yl)-2-methoxyphenyl)-1H-imidazol-4-yl)amino)pyrazine-2-carbonitrile] | 10000 to 100000 nM | 10 to 31.6 nM |
| CC(C)C1CN(C2CCN(c3ccc(-n4cnc(Nc5cnc(C#N)cn5)c4)cc3)C2)C1 (single isomer, unassigned) [Example 134, 5-((1-(4-(3-(3-Isopropylazetidin-1-yl)pyrrolidin-1-yl)phenyl)-1H-imidazol-4-yl)amino)pyrazine-2-carbonitrile] | > 100000 nM | 10 to 31.6 nM |
| COc1cc(CN2CCCC2)ccc1-n1cnc(Nc2cnc(C#N)cn2)c1 [Example 171, 5-((1-(2-Methoxy-4-(pyrrolidin-1-ylmethyl)phenyl)-1H-imidazol-4-yl)amino)pyrazine-2-carbonitrile] | 10000 to 100000 nM | 10 to 31.6 nM |
| CN1C[C@@H]2C[C@H]1CN2c1ccc(-n2cnc(Nc3cnc(C#N)cn3)c2)cc1 [Example 10, 5-((1-(4-((1S,4S)-5-Methyl-2,5-diazabicyclo[2.2.1]heptan-2-yl)phenyl)-1H-imidazol-4-yl)amino)pyrazine-2-carbonitrile] | 10000 to 100000 nM | 10 to 31.6 nM |
| CN(C)[C@H]1CN(c2ccc(-n3cnc(Nc4cnc(C#N)cn4)c3)cc2)C[C@H]1F [Example 62, 5-((1-(4-((3S,4R)-3-(Dimethylamino)-4-fluoropyrrolidin-1-yl)phenyl)-1H-imidazol-4-yl)amino)pyrazine-2-carbonitrile] | 1000 to 10000 nM | 10 to 31.6 nM |
| N#Cc1cnc(Nc2cn(-c3ccc(CN4CCOCC4)cc3)cn2)cn1 [Example 142, 5-((1-(4-(Morpholinomethyl)phenyl)-1H-imidazol-4-yl)amino)pyrazine-2-carbonitrile] | 10000 to 100000 nM | 100 to 316 nM |
| CN1CCN(c2ccc(-n3cnc(Nc4cnc(C#N)cn4)c3)nc2)CC1 [Example 18, 5-((1-(5-(4-Methylpiperazin-1-yl)pyridin-2-yl)-1H-imidazol-4-yl)amino)pyrazine-2-carbonitrile] | 1000 to 10000 nM | 10 to 31.6 nM |
| C[C@H]1CN(C)CCN1c1ccc(-n2cnc(Nc3cnc(C#N)cn3)c2)cc1 [Example 17, (S)-5-((1-(4-(2,4-Dimethylpiperazin-1-yl)phenyl)-1H-imidazol-4-yl)amino)pyrazine-2-carbonitrile] | 10000 to 100000 nM | 31.6 to 100 nM |
| CN1C[C@H]2C[C@@H]1CN2c1ccc(-n2cnc(Nc3cnc(C#N)cn3)c2)cc1 [Example 9, 5-((1-(4-((1R,4R)-5-Methyl-2,5-diazabicyclo[2.2.1]heptan-2-yl)phenyl)-1H-imidazol-4-yl)amino)pyrazine-2-carbonitrile] | 10000 to 100000 nM | 10 to 31.6 nM |
| CN1[C@@H]2COC[C@H]1CN(c1ccc(-n3cnc(Nc4cnc(C#N)cn4)c3)cc1)C2 [Example 177, 5-((1-(4-((1R,5S)-9-Methyl-3-oxa-7,9-diazabicyclo[3.3.1]nonan-7-yl)phenyl)-1H-imidazol-4-yl)amino)pyrazine-2-carbonitrile] | 10000 to 100000 nM | 100 to 316 nM |
| N#Cc1cnc(Nc2cn(-c3ccc(N4CCC(N5CCC5)C4)cc3)cn2)cn1 (single isomer, unassigned) [Example 114, 5-((1-(4-(3-(Azetidin-1-yl)pyrrolidin-1-yl)phenyl)-1H-imidazol-4-yl)amino)pyrazine-2-carbonitrile] | 1000 to 10000 nM | < 10 nM |
| CN1CCCN(c2ccc(-n3cnc(Nc4cnc(C#N)cn4)c3)cn2)CC1 [Example 20, 5-((1-(6-(4-methyl-1,4-Diazepan-1-yl)pyridin-3-yl)-1H-imidazol-4-yl)amino)pyrazine-2-carbonitrile] | 10000 to 100000 nM | 100 to 316 nM |
| CN1CCC(N(C)c2cccc(-n3cnc(Nc4cnc(C#N)cn4)c3)c2)CC1 [Example 43, 5-((1-(3-(Methyl(1-methylpiperidin-4-yl)amino)phenyl)-1H-imidazol-4-yl)amino)pyrazine-2-carbonitrile] | 10000 to 100000 nM | 31.6 to 100 nM |
| CC1CN(C2CCN(c3ccc(-n4cnc(Nc5cnc(C#N)cn5)c4)cc3)C2)C1 (single isomer, unassigned) [Example 125, 5-((1-(4-(3-(3-Methylazetidin-1-yl)pyrrolidin-1-yl)phenyl)-1H-imidazol-4-yl)amino)pyrazine-2-carbonitrile] | 1000 to 10000 nM | 10 to 31.6 nM |
| C[C@@H]1CCN1C1CCN(c2ccc(-n3cnc(Nc4cnc(C#N)cn4)c3)cc2)C1 (single isomer, unassigned) [Example 135] | 10000 to 100000 nM | 10 to 31.6 nM |
| CCN1CCN(c2ccc(-n3cnc(Nc4cnc(C#N)cn4)c3)c(OC)c2)CC1 [Example 27, 5-((1-(4-(4-Ethylpiperazin-1-yl)-2-methoxyphenyl)-1H-imidazol-4-yl)amino)pyrazine-2-carbonitrile] | 1000 to 10000 nM | < 10 nM |
| CN(C)[C@@H]1CCN(c2ccc(-n3cnc(Nc4cnc(C#N)cn4)c3)nc2C(F)(F)F)C1 [Example 77, (R)-5-((1-(5-(3-(Dimethylamino)pyrrolidin-1-yl)-6-(trifluoromethyl)pyridin-2-yl)-1H-imidazol-4-yl)amino)pyrazine-2-carbonitrile] | 10000 to 100000 nM | 10 to 31.6 nM |
| CN(C)C1CCCN(c2ccc(-n3cnc(Nc4cnc(C#N)cn4)c3)cc2)C1 (single isomer, unassigned) [Example 121, 5-((1-(4-(3-(Dimethylamino)piperidin-1-yl)phenyl)-1H-imidazol-4-yl)amino)pyrazine-2-carbonitrile] | > 100000 nM | < 10 nM |
| CN1CCN(c2ccc(-n3cnc(Nc4cnc(C#N)cn4)c3)cc2)CC1(C)C [Example 97, 5-((1-(4-(3,3,4-Trimethylpiperazin-1-yl)phenyl)-1H-imidazol-4-yl)amino)pyrazine-2-carbonitrile] | 10000 to 100000 nM | 31.6 to 100 nM |
